Results reported in ChEMBL document CHEMBL5046255, “Design and synthesis of dual inhibitors targeting snail and histone deacetylase for the treatment of solid tumour cancer” (Eur J Med Chem, 2022).

What was measured:
NCI-H522 = assay: Antiproliferative activity against human NCI-H522 cells assessed as growth inhibition incubated for 72 hrs by luminescence assay; type: functional
A498 = assay: Antiproliferative activity against human A498 cells assessed as growth inhibition incubated for 72 hrs by luminescence assay; type: functional
RPMI-8226 = assay: Antiproliferative activity against human RPMI-8226 cells assessed as growth inhibition incubated for 72 hrs by luminescence assay; type: functional
[1] = Cmax in Sprague-Dawley rat at 1 mg/kg, iv measured up to 24 hrs by LC-MS/MS analysis; type: ADME, organism-based; parameters: route intravenous, dose 1 mg/kg, time <=24; conditions: in vivo
[2] = Tmax in Sprague-Dawley rat at 10 mg/kg, po measured up to 24 hrs by LC-MS/MS analysis; type: ADME, organism-based; conditions: in vivo
SK-OV-3 = assay: Antiproliferative activity against human SK-OV-3 cells assessed as growth inhibition incubated for 72 hrs by luminescence assay; type: functional
[3] = AUC (0 to t) in Sprague-Dawley rat at 1 mg/kg, iv measured up to 24 hrs by LC-MS/MS analysis; type: ADME, organism-based; parameters: route intravenous, dose 1 mg/kg, time <=24; conditions: in vivo
RXF 393 = assay: Antiproliferative activity against human RXF 393 cells assessed as growth inhibition incubated for 72 hrs by luminescence assay; type: functional
[4] = Half life in Sprague-Dawley rat at 1 mg/kg, iv measured up to 24 hrs by LC-MS/MS analysis; type: ADME, organism-based; conditions: in vivo
OVCAR-4 = assay: Antiproliferative activity against human OVCAR-4 cells assessed as growth inhibition incubated for 72 hrs by luminescence assay; type: functional
MOLT-4 = assay: Antiproliferative activity against human MOLT-4 cells assessed as growth inhibition incubated for 72 hrs by luminescence assay; type: functional
SNB-75 = assay: Antiproliferative activity against human SNB-75 cells assessed as growth inhibition incubated for 72 hrs by luminescence assay; type: functional
SW-620 = assay: Antiproliferative activity against human SW-620 cells assessed as growth inhibition incubated for 72 hrs by luminescence assay; type: functional
CCRF-CEM = assay: Antiproliferative activity against human CCRF-CEM cells assessed as growth inhibition incubated for 72 hrs by luminescence assay; type: functional
[5] = Metabolic stability in dog plasma assessed as parent compound remaining at 100 uM measured after 2 hrs by LC-MS/MS analysis; type: ADME, cell-free, Canis lupus familiaris; conditions: read-out: Stability
HOP-92 = assay: Antiproliferative activity against human HOP-92 cells assessed as growth inhibition incubated for 72 hrs by luminescence assay; type: functional
[6] = Metabolic stability in monkey plasma assessed as half life at 100 uM measured upto 120 mins by LC-MS/MS analysis; type: ADME, cell-free, Macaca mulatta; conditions: rhesus monkey
HCT-15 = assay: Antiproliferative activity against human HCT-15 cells assessed as growth inhibition incubated for 72 hrs by luminescence assay; type: functional
LOX IMVI = assay: Antiproliferative activity against human LOX IMVI cells assessed as growth inhibition incubated for 72 hrs by luminescence assay; type: functional
[7] = Metabolic stability in human liver microsomes assessed as intrinsic clearance incubated for 10 mins by LC-MS/MS analysis; type: ADME, Microsome; conditions: read-out: CLH
OVCAR-8 = assay: Antiproliferative activity against human OVCAR-8 cells assessed as growth inhibition incubated for 72 hrs by luminescence assay; type: functional
EKVX = assay: Antiproliferative activity against human EKVX cells assessed as growth inhibition incubated for 72 hrs by luminescence assay; type: functional
[8] = Metabolic stability in dog plasma assessed as half life at 100 uM measured upto 120 mins by LC-MS/MS analysis; type: ADME, cell-free, Canis lupus familiaris
A549 = assay: Antiproliferative activity against human A549 cells assessed as growth inhibition incubated for 72 hrs by luminescence assay; type: functional
UACC-62 = assay: Antiproliferative activity against human UACC-62 cells assessed as growth inhibition incubated for 72 hrs by luminescence assay; type: functional
PC-3 = assay: Antiproliferative activity against human PC-3 cells assessed as growth inhibition incubated for 72 hrs by luminescence assay; type: functional
Histone deacetylase 11 = Histone deacetylase 11 (Homo sapiens, UniProt Q96DB2); assay: Inhibition of HDAC11 (unknown origin) using Boc-Lys(TFA)-AMC as fluorogenic substrate incubated for 30 mins by fluorescence based assay
SK-MEL-28 = assay: Antiproliferative activity against human SK-MEL-28 cells assessed as growth inhibition incubated for 72 hrs by luminescence assay; type: functional
TK-10 = assay: Antiproliferative activity against human TK-10 cells assessed as growth inhibition incubated for 72 hrs by luminescence assay; type: functional
Histone deacetylase 1 = Histone deacetylase 1 (Homo sapiens, UniProt Q13547); assay: Inhibition of HDAC1 (unknown origin) using p53 (379 to 382 residues) (RHKK(Ac-AMC) as fluorogenic substrate incubated for 1 hrs by fluorescence based assay
HCC 2998 = assay: Antiproliferative activity against human HCC 2998 cells assessed as growth inhibition incubated for 72 hrs by luminescence assay; type: functional
Malme-3M = assay: Antiproliferative activity against human Malme-3M cells assessed as growth inhibition incubated for 72 hrs by luminescence assay; type: functional
[9] = Metabolic stability in monkey liver microsomes assessed as intrinsic clearance incubated for 10 mins by LC-MS/MS analysis; type: ADME, Macaca mulatta, Microsome; conditions: rhesus monkey, read-out: CLH
UACC-257 = assay: Antiproliferative activity against human UACC-257 cells assessed as growth inhibition incubated for 72 hrs by luminescence assay; type: functional
HOP-62 = assay: Antiproliferative activity against human HOP-62 cells assessed as growth inhibition incubated for 72 hrs by luminescence assay; type: functional
ACHN = assay: Antiproliferative activity against human ACHN cells assessed as growth inhibition incubated for 72 hrs by luminescence assay; type: functional
DU-145 = assay: Antiproliferative activity against human DU-145 cells assessed as growth inhibition incubated for 72 hrs by luminescence assay; type: functional
[10] = Metabolic stability in dog liver microsomes assessed as intrinsic clearance incubated for 10 mins by LC-MS/MS analysis; type: ADME, Canis lupus familiaris, Microsome; conditions: read-out: CLH
SNB-19 = assay: Antiproliferative activity against human SNB-19 cells assessed as growth inhibition incubated for 72 hrs by luminescence assay; type: functional
HCT-116 = assay: Antiproliferative activity against human HCT-116 cells assessed as growth inhibition incubated for 72 hrs by luminescence assay; type: functional
[11] = Metabolic stability in human plasma assessed as parent compound remaining at 100 uM measured after 2 hrs by LC-MS/MS analysis; type: ADME, cell-free; conditions: read-out: Stability
U-251 = assay: Antiproliferative activity against human U-251 cells assessed as growth inhibition incubated for 72 hrs by luminescence assay; type: functional
Histone deacetylase 4 = Histone deacetylase 4 (Homo sapiens, UniProt P56524); assay: Inhibition of HDAC4 (unknown origin) using Boc-Lys(TFA)-AMC as fluorogenic substrate incubated for 30 mins by fluorescence based assay
[12] = Metabolic stability in rat plasma assessed as parent compound remaining at 100 uM measured after 2 hrs by LC-MS/MS analysis; type: ADME, cell-free; conditions: read-out: Stability
BT-549 = assay: Antiproliferative activity against human BT-549 cells assessed as growth inhibition incubated for 72 hrs by luminescence assay; type: functional
NCI-H460 = assay: Antiproliferative activity against human NCI-H460 cells assessed as growth inhibition incubated for 72 hrs by luminescence assay; type: functional
[13] = Metabolic stability in dog liver microsomes assessed as half life incubated for 10 mins by LC-MS/MS analysis; type: ADME, Canis lupus familiaris, Microsome

Histone deacetylase 4, sequence (P56524 whole entry): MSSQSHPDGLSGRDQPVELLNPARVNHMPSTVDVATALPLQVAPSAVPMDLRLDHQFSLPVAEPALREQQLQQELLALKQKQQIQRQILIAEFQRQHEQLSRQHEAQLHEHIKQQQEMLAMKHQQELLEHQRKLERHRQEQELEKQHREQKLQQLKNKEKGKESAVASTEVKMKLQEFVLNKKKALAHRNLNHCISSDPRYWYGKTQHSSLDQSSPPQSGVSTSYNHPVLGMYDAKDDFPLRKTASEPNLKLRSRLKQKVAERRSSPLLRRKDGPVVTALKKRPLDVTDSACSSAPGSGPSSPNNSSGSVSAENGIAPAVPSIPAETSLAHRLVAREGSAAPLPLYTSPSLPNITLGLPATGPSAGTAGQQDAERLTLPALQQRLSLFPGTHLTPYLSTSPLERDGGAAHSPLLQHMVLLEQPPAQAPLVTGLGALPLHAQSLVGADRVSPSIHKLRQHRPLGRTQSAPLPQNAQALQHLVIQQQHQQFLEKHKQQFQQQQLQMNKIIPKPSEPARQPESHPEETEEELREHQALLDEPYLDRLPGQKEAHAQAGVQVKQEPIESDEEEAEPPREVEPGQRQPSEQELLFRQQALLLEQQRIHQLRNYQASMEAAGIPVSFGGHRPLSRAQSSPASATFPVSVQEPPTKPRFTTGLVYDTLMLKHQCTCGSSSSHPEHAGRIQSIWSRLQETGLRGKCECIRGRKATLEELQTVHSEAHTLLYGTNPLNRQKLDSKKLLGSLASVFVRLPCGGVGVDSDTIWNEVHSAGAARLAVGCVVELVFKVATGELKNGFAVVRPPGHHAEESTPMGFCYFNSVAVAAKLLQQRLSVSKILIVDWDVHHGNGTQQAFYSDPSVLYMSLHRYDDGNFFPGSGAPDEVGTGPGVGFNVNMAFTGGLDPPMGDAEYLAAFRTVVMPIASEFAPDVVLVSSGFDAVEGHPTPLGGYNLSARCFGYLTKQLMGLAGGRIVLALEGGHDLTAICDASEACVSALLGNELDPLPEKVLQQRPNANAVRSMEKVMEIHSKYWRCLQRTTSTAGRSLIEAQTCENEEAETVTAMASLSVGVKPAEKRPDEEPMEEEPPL
Histone deacetylase 1, sequence (Q13547 whole entry, the tested form may be a part): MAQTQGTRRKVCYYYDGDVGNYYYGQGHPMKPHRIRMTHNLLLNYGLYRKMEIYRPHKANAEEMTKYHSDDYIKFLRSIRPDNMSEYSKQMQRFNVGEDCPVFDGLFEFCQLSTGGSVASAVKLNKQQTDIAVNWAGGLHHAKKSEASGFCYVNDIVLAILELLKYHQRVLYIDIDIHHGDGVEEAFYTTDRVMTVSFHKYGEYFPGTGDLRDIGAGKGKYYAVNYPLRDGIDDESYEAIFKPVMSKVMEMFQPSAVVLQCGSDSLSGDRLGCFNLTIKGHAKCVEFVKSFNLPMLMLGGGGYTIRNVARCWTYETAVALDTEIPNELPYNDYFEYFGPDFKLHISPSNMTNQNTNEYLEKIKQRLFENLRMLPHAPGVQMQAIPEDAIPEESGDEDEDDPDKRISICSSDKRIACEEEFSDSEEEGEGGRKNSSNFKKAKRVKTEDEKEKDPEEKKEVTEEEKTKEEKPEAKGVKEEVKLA
Histone deacetylase 11, sequence (Q96DB2 whole entry): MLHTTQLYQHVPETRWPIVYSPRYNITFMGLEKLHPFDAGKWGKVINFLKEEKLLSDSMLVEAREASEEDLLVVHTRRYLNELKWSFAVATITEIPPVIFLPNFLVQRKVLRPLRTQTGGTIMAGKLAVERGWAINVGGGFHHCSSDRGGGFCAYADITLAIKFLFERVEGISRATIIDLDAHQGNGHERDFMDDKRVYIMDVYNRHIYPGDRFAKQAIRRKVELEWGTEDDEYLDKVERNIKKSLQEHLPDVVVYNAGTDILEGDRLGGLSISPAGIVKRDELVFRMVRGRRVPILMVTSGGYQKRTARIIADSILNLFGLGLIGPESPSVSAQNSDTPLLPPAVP

Question: With Cc1cc(Nc2nc(SCc3ccc(C(=O)Nc4ccc(F)cc4N)cc3)nn3cccc23)n[nH]1 as the compound, how does the GI50 (NCI-H522) read?
Answer: 0.0488 µM

Question: What about the GI50 (A498) of the same compound?
Answer: 0.623 µM

Question: And the GI50 (RPMI-8226)?
Answer: 0.514 µM

Question: What about the Cmax [1] of the same compound?
Answer: 144 ng/mL

Question: What about the Tmax [2] of the same compound?
Answer: 4 h

Question: And the GI50 (SK-OV-3)?
Answer: 0.339 µM

Question: What about the AUCt [3] of the same compound?
Answer: 715 ng·h/mL

Question: And the GI50 (RXF 393)?
Answer: 0.301 µM

Question: And the t1/2 [4]?
Answer: 0.303 h

Question: And the GI50 (OVCAR-4)?
Answer: 1.66 µM

Question: And the GI50 (MOLT-4)?
Answer: 0.508 µM

Question: What about the GI50 (SNB-75) of the same compound?
Answer: 0.198 µM

Question: What about the GI50 (SW-620) of the same compound?
Answer: 0.426 µM

Question: And the GI50 (CCRF-CEM)?
Answer: 0.411 µM

Question: What about the remaining at 2 h, 100 µM [5] of the same compound?
Answer: 85.7%

Question: What about the GI50 (HOP-92) of the same compound?
Answer: 3.68 µM

Question: And the half-life at 100 µM [6]?
Answer: 5.5 h

Question: What about the GI50 (HCT-15) of the same compound?
Answer: 0.424 µM

Question: And the GI50 (LOX IMVI)?
Answer: 0.665 µM

Question: And the microsomal CLint [7]?
Answer: 20.9 µL/min/mg

Question: And the GI50 (OVCAR-8)?
Answer: 0.483 µM

Question: What about the GI50 (EKVX) of the same compound?
Answer: 0.919 µM

Question: And the half-life at 100 µM [8]?
Answer: 7.15 h

Question: What about the GI50 (A549) of the same compound?
Answer: 0.886 µM

Question: What about the GI50 (UACC-62) of the same compound?
Answer: 0.347 µM

Question: What about the GI50 (PC-3) of the same compound?
Answer: 0.355 µM

Question: And the IC50 (Histone deacetylase 11)?
Answer: > 10 µM

Question: And the GI50 (SK-MEL-28)?
Answer: 2.83 µM

Question: What about the GI50 (TK-10) of the same compound?
Answer: 1.21 µM

Question: What about the IC50 (Histone deacetylase 1) of the same compound?
Answer: 0.405 µM

Question: And the GI50 (HCC 2998)?
Answer: 0.677 µM

Question: And the GI50 (Malme-3M)?
Answer: 1.83 µM

Question: What about the microsomal CLint [9] of the same compound?
Answer: 50.3 µL/min/mg

Question: And the GI50 (UACC-257)?
Answer: 3.69 µM

Question: And the GI50 (HOP-62)?
Answer: 0.556 µM

Question: What about the GI50 (ACHN) of the same compound?
Answer: 1.24 µM

Question: And the GI50 (DU-145)?
Answer: 0.461 µM

Question: And the microsomal CLint [10]?
Answer: 26.6 µL/min/mg

Question: What about the GI50 (SNB-19) of the same compound?
Answer: 0.536 µM

Question: And the GI50 (HCT-116)?
Answer: 0.494 µM

Question: And the remaining at 2 h, 100 µM [11]?
Answer: 79.1%

Question: What about the GI50 (U-251) of the same compound?
Answer: 0.343 µM

Question: And the IC50 (Histone deacetylase 4)?
Answer: > 10 µM

Question: What about the remaining at 2 h, 100 µM [12] of the same compound?
Answer: 105%

Question: What about the GI50 (BT-549) of the same compound?
Answer: 0.296 µM

Question: And the GI50 (NCI-H460)?
Answer: 0.395 µM

Question: And the half-life [13]?
Answer: 0.868 h
